The text below walks through data of ChEMBL document CHEMBL2040820, “Synthesis and selective cytotoxic activity of novel hybrid chalcones against prostate cancer cells” (Bioorg Med Chem Lett, 2012).

Broadly, the IC50 is the midpoint of a concentration-inhibition curve.

Assay [1] concerns NCI-H460. Put plainly: Anticancer activity against human NCI-H460 cells after 48 hrs by MTT assay. The settings on record: NCI-H460, 48 h. Format: functional, cell-based. For orientation: Tetrazolium assays rely on reduction of a dye to a coloured formazan, in cell work by metabolically active cells.
For assay [2], the system named is B16. Put plainly: Anticancer activity against mouse B16 cells after 48 hrs by MTT assay. The settings on record: B16, 48 h. Format: functional, cell-based.
Assay [3] concerns PC-3. Put plainly: Anticancer activity against human PC3 cells after 48 hrs by MTT assay. In kind it is functional, cell-based. The following applies: PC-3, 48 h.
For assay [4], the system named is HT-29. The assay can be described thus: Anticancer activity against human HT-29 cells after 48 hrs by MTT assay. In kind it is functional, cell-based. The settings on record: HT-29, 48 h.
Assay [5] concerns B16. The assay can be described thus: Growth inhibition of mouse B16 cells at 100 uM after 48 hrs by MTT assay. The settings on record: B16, 48 h, read-out: GI. In kind it is functional.
The test system of assay [6] is HT-29. The assay can be described thus: Growth inhibition of human HT-29 cells at 100 uM after 48 hrs by MTT assay. In kind it is functional. The settings on record: HT-29, 48 h, read-out: GI.
Assay [7] concerns PC-3. Put plainly: Growth inhibition of human PC3 cells at 100 uM after 48 hrs by MTT assay. Format: functional. The settings on record: PC-3, 48 h, read-out: GI.
The subject of assay [8] is NCI-H460. The assay can be described thus: Growth inhibition of human NCI-H460 cells at 100 uM after 48 hrs by MTT assay. The settings on record: NCI-H460, 48 h, read-out: GI. Format: functional.

`CC1(C)Cc2c(ccc(C(=O)/C=C/c3ccccc3)c2OCc2ccccc2)O1`: the IC50 in assay [1], in assay [2], in assay [3] and in assay [4] was above 100 µM in each case.

Consider `CC1(C)Cc2c(ccc(C(=O)/C=C/c3ccc(F)cc3)c2OCc2ccccc2)O1`, for which the IC50 was 75.8 µM in assay [1], above 100 µM in assay [2], 44.2 µM in assay [3] and 23 µM in assay [4].

Turning to `CC1(C)Cc2c(ccc(C(=O)/C=C/c3ccc(Cl)cc3)c2OCc2ccccc2)O1`, the IC50 in assay [1], in assay [3] and in assay [4] was above 100 µM in each case. The inhibition of growth at 100 µM in assay [5] is below 10%.

On to `CC1(C)Cc2c(ccc(C(=O)/C=C/c3ccc(Br)cc3)c2OCc2ccccc2)O1`, for which the IC50 in assay [1] is above 100 µM; in assay [3], above 50 µM. For the same compound, the inhibition of growth at 100 µM in assay [6] and in assay [5] was below 10% in each case.

Take `COc1ccc(/C=C/C(=O)c2ccc3c(c2OCc2ccccc2)CC(C)(C)O3)cc1`: the half-inhibitory concentration (IC50) in assay [1] was above 100 µM; in assay [2], above 100 µM; in assay [3], 48.9 µM. In addition, in assay [6], the inhibition of growth at 100 µM is below 10%.

With `CC1(C)Cc2c(ccc(C(=O)/C=C/c3ccc(Cl)cc3Cl)c2OCc2ccccc2)O1`, the IC50 in assay [1], in assay [2] and in assay [4] was above 100 µM in each case. The inhibition of growth at 100 µM in assay [7] was below 10%.

`CC1(C)Cc2c(ccc(C(=O)/C=C/c3cn(-c4ccccc4)nc3-c3ccccc3)c2OCc2ccccc2)O1`: the inhibition of growth at 100 µM in assay [8] was below 10%. Also, the IC50 in assay [2], in assay [3] and in assay [4] was above 100 µM each time.

With `Cc1ccc(-c2nn(-c3ccccc3)cc2/C=C/C(=O)c2ccc3c(c2OCc2ccccc2)CC(C)(C)O3)cc1`, the 50% inhibitory concentration (IC50) was above 100 µM in assay [1], 24.2 µM in assay [3] and above 100 µM in assay [4]. Besides, the inhibition of growth at 100 µM in assay [5] was below 10%.

`CC1(C)Cc2c(ccc(C(=O)/C=C/c3cn(-c4ccccc4)nc3-c3ccc(Cl)cc3)c2OCc2ccccc2)O1`: the 50% inhibitory concentration (IC50) in assay [1] was above 100 µM; in assay [3], 26 µM; in assay [4], above 100 µM. The inhibition of growth at 100 µM in assay [5] is below 10%.

Turning to `COc1ccc(-c2nn(-c3ccccc3)cc2/C=C/C(=O)c2ccc3c(c2OCc2ccccc2)CC(C)(C)O3)cc1`, the half-inhibitory concentration (IC50) in assay [1] was above 100 µM; in assay [3], 18.4 µM; in assay [4], above 100 µM. In assay [5], the inhibition of growth at 100 µM was below 10%.

For the compound `CC1(C)Cc2c(ccc(C(=O)/C=C/c3cn(-c4ccccc4)nc3-c3ccc([N+](=O)[O-])cc3)c2OCc2ccccc2)O1`, the inhibition of growth at 100 µM in assay [8], in assay [6] and in assay [5] was below 10% in each case. This compound showed an IC50 in assay [3] of 62.3 µM.

Take `CC1(C)Cc2c(ccc(C(=O)/C=C/c3cn(-c4ccccc4)nc3-c3cccc([N+](=O)[O-])c3)c2OCc2ccccc2)O1`: the concentration for half-maximal inhibition (IC50) in assay [1] was above 100 µM; in assay [2], above 50 µM; in assay [3] it was above 100 µM; in assay [4] it was above 100 µM.

For the compound `CC1(C)Cc2c(OCc3ccccc3)ccc(C(=O)/C=C/c3ccccc3)c2O1`, the 50% inhibitory concentration (IC50) in assay [1] was above 100 µM; in assay [2], 30.3 µM. The inhibition of growth at 100 µM in assay [6] and in assay [7] was below 10% in each case.

As to `CC1(C)Cc2c(OCc3ccccc3)ccc(C(=O)/C=C/c3ccc(F)cc3)c2O1`, the IC50 was 22.3 µM in assay [1] and above 100 µM in assay [2]. For the same compound, the inhibition of growth at 100 µM in assay [6] and in assay [7] was below 10% each time.

`CC1(C)Cc2c(OCc3ccccc3)ccc(C(=O)/C=C/c3ccc(Cl)cc3)c2O1`: the inhibition of growth at 100 µM in assay [8] and in assay [6] was below 10% throughout. The IC50 in assay [2] and in assay [3] was above 100 µM each time.

Consider `CC1(C)Cc2c(OCc3ccccc3)ccc(C(=O)/C=C/c3ccc(Br)cc3)c2O1`, for which the IC50 in assay [1], in assay [3] and in assay [4] was above 100 µM in each case. Also, the inhibition of growth at 100 µM in assay [5] is below 10%.

On to `COc1ccc(/C=C/C(=O)c2ccc(OCc3ccccc3)c3c2OC(C)(C)C3)cc1`, for which the half-inhibitory concentration (IC50) in assay [1] is above 100 µM; in assay [3], 13.5 µM. The inhibition of growth at 100 µM in assay [6] and in assay [5] was below 10% each time.

Regarding `CC1(C)Cc2c(OCc3ccccc3)ccc(C(=O)/C=C/c3ccc(Cl)cc3Cl)c2O1`, the inhibition of growth at 100 µM in assay [8], in assay [6] and in assay [5] was below 10% throughout. The concentration for half-maximal inhibition (IC50) in assay [3] was above 100 µM.

Consider `CC1(C)Cc2c(OCc3ccccc3)ccc(C(=O)/C=C/c3cn(-c4ccccc4)nc3-c3ccccc3)c2O1`, for which the inhibition of growth at 100 µM in assay [8], in assay [6] and in assay [7] was below 10% throughout. This compound also showed an IC50 in assay [2] above 100 µM.

Take `Cc1ccc(-c2nn(-c3ccccc3)cc2/C=C/C(=O)c2ccc(OCc3ccccc3)c3c2OC(C)(C)C3)cc1`: the inhibition of growth at 100 µM in assay [8] and in assay [6] was below 10% throughout. Besides, the IC50 in assay [2] and in assay [3] was above 100 µM in each case.

Turning to `CC1(C)Cc2c(OCc3ccccc3)ccc(C(=O)/C=C/c3cn(-c4ccccc4)nc3-c3ccc(Cl)cc3)c2O1`, the inhibition of growth at 100 µM in assay [8], in assay [6] and in assay [5] was below 10% in each case. This compound had a concentration for half-maximal inhibition (IC50) in assay [3] of 8.4 µM.

`COc1ccc(-c2nn(-c3ccccc3)cc2/C=C/C(=O)c2ccc(OCc3ccccc3)c3c2OC(C)(C)C3)cc1`: the inhibition of growth at 100 µM in assay [8] and in assay [5] was below 10% in each case. In addition, the half-maximal inhibitory concentration (IC50) in assay [3] was 7.9 µM; in assay [4], above 100 µM.

`CC1(C)Cc2c(OCc3ccccc3)ccc(C(=O)/C=C/c3cn(-c4ccccc4)nc3-c3ccc([N+](=O)[O-])cc3)c2O1`: the IC50 in assay [1], in assay [2], in assay [3] and in assay [4] was above 100 µM throughout.

For the compound `CC1(C)Cc2c(OCc3ccccc3)ccc(C(=O)/C=C/c3cn(-c4ccccc4)nc3-c3cccc([N+](=O)[O-])c3)c2O1`, the IC50 is above 100 µM in assay [1] and 5.9 µM in assay [3]. The inhibition of growth at 100 µM in assay [6] and in assay [5] was below 10% throughout.

Compound `COc1ccc(/C=C/C(=O)c2ccc(O)c3c2OC(C)(C)C3)cc1` showed a concentration for half-maximal inhibition (IC50) in assay [3] of 48.4 µM. That is a double-digit micromolar value.

`CC1(C)Cc2c(O)ccc(C(=O)/C=C/c3cn(-c4ccccc4)nc3-c3ccc(Cl)cc3)c2O1`: the IC50 in assay [3] stood at 18 µM.

The compound `COc1ccc(-c2nn(-c3ccccc3)cc2/C=C/C(=O)c2ccc(O)c3c2OC(C)(C)C3)cc1` yielded an IC50 in assay [3] of 20.8 µM.

For `CC1(C)Cc2c(O)ccc(C(=O)/C=C/c3cn(-c4ccccc4)nc3-c3cccc([N+](=O)[O-])c3)c2O1`, the IC50 in assay [3] worked out at 25.6 µM.

Turning to `COc1cccc2c1C(=O)c1c(O)c3c(c(O)c1C2=O)C[C@@](O)(C(=O)CO)C[C@@H]3O[C@H]1C[C@H](N)[C@H](O)[C@H](C)O1` [DOXORUBICIN], the IC50 in assay [1] turned out to be 5.6 µM; in assay [2] it was 0.03 µM; in assay [3], 5.9 µM; in assay [4] it was 19.3 µM.
